Measured values as given in ChEMBL document CHEMBL6178002, “Identification of a RANKL/TNF-α Dual-Inhibitor as a Potential Disease-Modifying Agent for the Treatment of Knee Osteoarthritis” (J Med Chem, 2025).
Activity calls are given as the source filed them. The calls are words filed in the database; no cut-off is given here.

Legend:
[1] = Cytotoxicity against bone marrow macrophage cells (unknown origin) assessed as cell viability at 10 uM incubated for 24 hrs by CCK8 assay relative to control; assay type: toxicity, cell-based; settings: read-out: Activity
[2] = Inhibition of RANKL/M-CSF-induced osteoclastogenesis in male C57/BL6 mouse bone marrow cells at 1 uM incubated for 5 to 7 days by TRAP staining based analysis relative to control; assay type: functional; settings: C57/BL6, Bone marrow cell, time 5-7 day
[3] = molecular target: T1, Tumor necrosis factor ligand superfamily member 11 (Homo sapiens, UniProt O14788); experiment: Binding affinity to CM5 chip-immobilized human RANKL assessed as dissociation constant by SPR analysis
T1 sequence (O14788 whole entry): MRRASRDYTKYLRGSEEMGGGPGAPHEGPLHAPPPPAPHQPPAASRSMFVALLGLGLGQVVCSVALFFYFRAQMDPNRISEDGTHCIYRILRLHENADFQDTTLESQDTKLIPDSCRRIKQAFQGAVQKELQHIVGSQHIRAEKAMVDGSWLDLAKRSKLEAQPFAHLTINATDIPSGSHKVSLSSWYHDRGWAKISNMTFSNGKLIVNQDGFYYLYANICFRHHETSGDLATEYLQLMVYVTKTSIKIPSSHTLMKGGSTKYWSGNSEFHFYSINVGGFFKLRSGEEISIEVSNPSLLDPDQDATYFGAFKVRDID

Bone marrow cell = experiment: Inhibition of RANKL/M-CSF-induced osteoclastogenesis in male C57/BL6 mouse bone marrow cells assessed as decrease in F-actin loop formation incubated for 5 to 7 days by rhodamine phalloidin/DAPI staining based analysis; assay type: functional; settings: dose <= 1.0 µM, time 5-7 day
Bone marrow macrophage [4] = experiment: Inhibition of RANKL/M-CSF-induced osteoclastogenesis in bone marrow macrophage cells (unknown origin) assessed as decrease in TRAP mRNA level incubated for 48 hrs by RT-qPCR analysis; assay type: functional, cell-based; settings: dose <= 5.0 µM
Bone marrow macrophage [5] = experiment: Inhibition of RANKL/M-CSF-induced osteoclastogenesis in bone marrow macrophage cells (unknown origin) assessed as decrease in cathepsin K mRNA level incubated for 48 hrs by RT-qPCR analysis; assay type: functional, cell-based; settings: dose <= 5.0 µM
Bone marrow macrophage [6] = experiment: Inhibition of RANKL/M-CSF-induced osteoclastogenesis in bone marrow macrophage cells (unknown origin) assessed as decrease in NFATC1 mRNA level at 1 uM by RT-qPCR analysis; assay type: functional, cell-based; settings: time <= 5.0 day
Bone marrow macrophage [7] = experiment: Inhibition of RANKL/M-CSF-induced osteoclastogenesis in bone marrow macrophage cells (unknown origin) assessed as decrease in TRAP mRNA level at 1 uM by RT-qPCR analysis; assay type: functional, cell-based; settings: time <= 5.0 day
Bone marrow macrophage [8] = experiment: Inhibition of RANKL/M-CSF-induced osteoclastogenesis in bone marrow macrophage cells (unknown origin) assessed as decrease in cathepsin K mRNA level at 1 uM by RT-qPCR analysis; assay type: functional, cell-based; settings: time <= 5.0 day
Bone marrow macrophage [9] = experiment: Inhibition of RANKL/M-CSF-induced osteoclastogenesis in bone marrow macrophage cells (unknown origin) assessed as decrease in c-Fos level incubated for 48 hrs by Western blot analysis; assay type: functional, cell-based; settings: dose <= 2.5 µM
Bone marrow macrophage [10] = experiment: Inhibition of RANKL/M-CSF-induced osteoclastogenesis in bone marrow macrophage cells (unknown origin) assessed as decrease in MMP-9 level incubated for 48 hrs by Western blot analysis; assay type: functional, cell-based; settings: dose <= 2.5 µM
Bone marrow macrophage [11] = experiment: Inhibition of RANKL/M-CSF-induced osteoclastogenesis in bone marrow macrophage cells (unknown origin) assessed as decrease in cathepsin K level at 1 uM by Western blot analysis; assay type: functional, cell-based; settings: time <= 5.0 day
Bone marrow macrophage [12] = experiment: Inhibition of RANKL/M-CSF-induced osteoclastogenesis in bone marrow macrophage cells (unknown origin) assessed as decrease in NFATC1 level at 1 uM by Western blot analysis; assay type: functional, cell-based; settings: time <= 5.0 day
Bone marrow macrophage [13] = experiment: Inhibition of RANKL/M-CSF-induced osteoclastogenesis in bone marrow macrophage cells (unknown origin) assessed as decrease in TRAP level at 1 uM by Western blot analysis; assay type: functional, cell-based; settings: time <= 5.0 day
Bone marrow macrophage [14] = experiment: Inhibition of RANKL/M-CSF-induced osteoclastogenesis in bone marrow macrophage cells (unknown origin) assessed as decrease in MMP-9 level at 1 uM by Western blot analysis; assay type: functional, cell-based; settings: time <= 5.0 day
RAW264.7 [15] = experiment: Anti-inflammatory activity in LPS-stimulated mouse RAW264.7 cells assessed as decrease in IL-1beta level at 10 uM preincubated for 24 hrs followed by LPS addition measured after 2 hrs by RT-qPCR analysis; assay type: functional, cell-based; settings: time 26.0 hrs
RAW264.7 [16] = experiment: Anti-inflammatory activity in LPS-stimulated mouse RAW264.7 cells assessed as decrease in IL-18 level at 10 uM preincubated for 24 hrs followed by LPS addition measured after 2 hrs by RT-qPCR analysis; assay type: functional, cell-based; settings: time 26.0 hrs
RAW264.7 [17] = experiment: Inhibition of NFkappaB activation in mouse RAW264.7 cells assessed as reduction in TNF-alpha-induced NF-kappaB p65 phosphorylation at 10 uM preincubated for 12 hrs followed by TNF-alpha addition measured after 2 hrs by immunofluorescence based analysis; assay type: cell-based; settings: time 14.0 hrs
RAW264.7 [18] = experiment: Inhibition of NFkappaB activation in mouse RAW264.7 cells assessed as reduction in TNF-alpha-induced NF-kappaB p65 phosphorylation at 1 to 10 uM preincubated for 12 hrs followed by LPS/TNF-alpha addition measured after 2 hrs by Western blot analysis; assay type: cell-based; settings: dose 1-10 µM, time 14.0 hrs
Primary chondrocyte = experiment: Anti-inflammatory activity in IL-1beta-treated C57/BL6 mouse primary chondrocytes assessed as decrease in MMP-13 mRNA level at 10 uM incubated for 24 hrs by RT-qPCR analysis; assay type: functional, cell-based
[19] = Cmax in male Sprague-Dawley rat at 1 mg/kg, iv measured for 0.25 to 24 hrs; assay type: ADME, organism-based; settings: in vivo, time 0.25-24 hrs
[20] = AUC (0 to t) in male Sprague-Dawley rat at 1 mg/kg, iv measured for 0.25 to 24 hrs; assay type: ADME, organism-based; settings: in vivo, time 0.25-24 hrs
[21] = Volume of distribution at steady state in male Sprague-Dawley rat at 1 mg/kg, iv measured for 0.25 to 24 hrs; assay type: ADME, organism-based; settings: in vivo, time 0.25-24 hrs, read-out: Vdss
[22] = Cmax in male Sprague-Dawley rat at 10 mg/kg, po measured for 0.25 to 24 hrs; assay type: ADME, organism-based; settings: in vivo, time 0.25-24 hrs
[23] = Tmax in male Sprague-Dawley rat at 10 mg/kg, po measured for 0.25 to 24 hrs; assay type: ADME, organism-based; settings: in vivo, time 0.25-24 hrs
[24] = Half life in male Sprague-Dawley rat at 10 mg/kg, po measured for 0.25 to 24 hrs; assay type: ADME, organism-based; settings: in vivo, time 0.25-24 hrs
Rattus norvegicus [25] = species on record: Rattus norvegicus; experiment: Anti-inflammatory activity in male Sprague-Dawley rat model of ACLT-induced osteoarthritis assessed as reduction in articular cartilage erosion at 50 to 100 ug, IART treated weekly once for 8 weeks by H and E/S-O/FG staining based analysis; assay type: functional, organism-based; settings: dose 50-100 µg
Rattus norvegicus [26] = species on record: Rattus norvegicus; experiment: Anti-inflammatory activity in male Sprague-Dawley rat model of ACLT-induced osteoarthritis assessed as reduction in OARSI score at 50 to 100 ug, IART treated weekly once for 8 weeks; assay type: functional, organism-based; settings: dose 50-100 µg
Rattus norvegicus [27] = species on record: Rattus norvegicus; experiment: Anti-inflammatory activity in male Sprague-Dawley rat model of ACLT-induced osteoarthritis assessed as increase in BV/TV level at 50 to 100 ug, IART treated weekly once for 8 weeks by micro-CT analysis; assay type: functional, organism-based; settings: dose 50-100 µg
Rattus norvegicus [28] = species on record: Rattus norvegicus; experiment: Anti-inflammatory activity in male Sprague-Dawley rat model of ACLT-induced osteoarthritis assessed as increase in Tb.N level at 50 to 100 ug, IART treated weekly once for 8 weeks by micro-CT analysis; assay type: functional, organism-based; settings: dose 50-100 µg

Compound: Cc1cccc(C)c1NC(=O)[C@@H]1Cc2c([nH]c3ccccc23)C2(CN(c3ccccc3)C2)N1
- viability at 24 h, 10 µM [1]: 110%
- inhibition at 1 µM [2]: 98.6%
- Kd [3]: 3.98 µM
- inhibition (Bone marrow cell): Dose-dependent-effect
- inhibition (Bone marrow macrophage [4]): Dose-dependent-effect
- inhibition (Bone marrow macrophage [5]): Dose-dependent-effect
- inhibition (Bone marrow macrophage [6]): Time-dependent-effect
- inhibition (Bone marrow macrophage [7]): Time-dependent-effect
- inhibition (Bone marrow macrophage [8]): Time-dependent-effect
- inhibition (Bone marrow macrophage [9]): Dose-dependent-effect
- inhibition (Bone marrow macrophage [10]): Dose-dependent-effect
- inhibition (Bone marrow macrophage [11]): Time-dependent-effect
- inhibition (Bone marrow macrophage [12]): Time-dependent-effect
- inhibition (Bone marrow macrophage [13]): Time-dependent-effect
- inhibition (Bone marrow macrophage [14]): Time-dependent-effect
- Activity (RAW264.7 [15]): Active
- Activity (RAW264.7 [16]): Active
- inhibition (RAW264.7 [17]): Active
- inhibition (RAW264.7 [18]): Active
- Activity (Primary chondrocyte): Active
- Cmax [19]: 338 ng/mL
- AUC(0-t) [20]: 227 ng·h/mL
- Vd [21]: 4.91 L/kg
- Cmax [22]: 780 ng/mL
- Tmax [23]: 0.5 h
- half-life [24]: 5.07 h
- Activity (Rattus norvegicus [25]): Active
- Activity (Rattus norvegicus [26]): Active
- Activity (Rattus norvegicus [27]): Active
- Activity (Rattus norvegicus [28]): Active
